# Assay: In vivo radioactivity biodistribution experiment in normal mice (Example 1, Table 13)
# Parameters: species or system ddY mice
# Method: ^125I-labeled compounds were diluted with 10% ethanol-containing physiological saline. […] After their blood was collected, organs were removed, and the weights and radioactivities thereof were measured.
# When any of the aurone derivatives was used, sufficient radioactivity to perform imaging of intracerebral amyloid migrated to the brain from the early stage of injection (1.7-4.6% ID/g). […] It was also shown that, in any of the aurone derivatives, in vivo radioactivity behavior is discharged mainly from the liver to the bile duct and the intestinal tract.
Structure (SMILES),"Biodistribution of radioactivity, Blood (2 min after injection)","Biodistribution of radioactivity, Blood (10 min after injection)","Biodistribution of radioactivity, Blood (30 min after injection)","Biodistribution of radioactivity, Blood (60 min after injection)","Biodistribution of radioactivity, Brain (2 min after injection)","Biodistribution of radioactivity, Brain (10 min after injection)","Biodistribution of radioactivity, Brain (30 min after injection)","Biodistribution of radioactivity, Brain (60 min after injection)","Biodistribution of radioactivity, Heart (2 min after injection)","Biodistribution of radioactivity, Heart (10 min after injection)","Biodistribution of radioactivity, Heart (30 min after injection)","Biodistribution of radioactivity, Heart (60 min after injection)","Biodistribution of radioactivity, Intestine (2 min after injection)","Biodistribution of radioactivity, Intestine (10 min after injection)","Biodistribution of radioactivity, Intestine (30 min after injection)","Biodistribution of radioactivity, Intestine (60 min after injection)","Biodistribution of radioactivity, Kidney (2 min after injection)","Biodistribution of radioactivity, Kidney (10 min after injection)","Biodistribution of radioactivity, Kidney (30 min after injection)","Biodistribution of radioactivity, Kidney (60 min after injection)",other results
CNc1ccc(/C=C2\Oc3ccc([125I])cc3C2=O)cc1 [[^125I]12],4.16 (0.98) % injected dose per gram,2.72 (1.01) % injected dose per gram,2.84 (1.48) % injected dose per gram,2.41 (0.70) % injected dose per gram,3.17 (0.45) % injected dose per gram,1.22 (0.09) % injected dose per gram,0.32 (0.02) % injected dose per gram,0.24 (0.05) % injected dose per gram,5.07 (0.47) % injected dose per gram,2.17 (0.34) % injected dose per gram,0.98 (0.21) % injected dose per gram,0.84 (0.37) % injected dose per gram,3.06 (1.11) % injected dose per gram,6.59 (3.43) % injected dose per gram,10.34 (4.91) % injected dose per gram,14.04 (2.87) % injected dose per gram,9.91 (2.00) % injected dose per gram,11.44 (2.76) % injected dose per gram,6.00 (2.14) % injected dose per gram,3.52 (0.77) % injected dose per gram,"Biodistribution of radioactivity, Liver (2 min after injection): 11.26 (2.81) % injected dose per gram; Biodistribution of radioactivity, Liver (10 min after injection): 9.70 (2.78) % injected dose per gram; Biodistribution of radioactivity, Liver (30 min after injection): 6.11 (2.16) % injected dose per gram; Biodistribution of radioactivity, Liver (60 min after injection): 4.91 (0.72) % injected dose per gram; Biodistribution of radioactivity, Lung (2 min after injection): 6.86 (0.65) % injected dose per gram; Biodistribution of radioactivity, Lung (10 min after injection): 4.44 (0.39) % injected dose per gram; Biodistribution of radioactivity, Lung (30 min after injection): 2.41 (0.66) % injected dose per gram; Biodistribution of radioactivity, Lung (60 min after injection): 2.94 (0.62) % injected dose per gram; Biodistribution of radioactivity, Pancreas (2 min after injection): 4.83 (0.60) % injected dose per gram; Biodistribution of radioactivity, Pancreas (10 min after injection): 1.81 (0.15) % injected dose per gram; Biodistribution of radioactivity, Pancreas (30 min after injection): 0.83 (0.10) % injected dose per gram; Biodistribution of radioactivity, Pancreas (60 min after injection): 0.77 (0.28) % injected dose per gram; Biodistribution of radioactivity, Spleen (2 min after injection): 2.37 (0.41) % injected dose per gram; Biodistribution of radioactivity, Spleen (10 min after injection): 1.28 (0.19) % injected dose per gram; Biodistribution of radioactivity, Spleen (30 min after injection): 0.86 (0.14) % injected dose per gram; Biodistribution of radioactivity, Spleen (60 min after injection): 0.75 (0.17) % injected dose per gram; Biodistribution of radioactivity, Stomach (2 min after injection): 1.30 (0.43) % injected dose per organ; Biodistribution of radioactivity, Stomach (10 min after injection): 2.53 (0.97) % injected dose per organ; Biodistribution of radioactivity, Stomach (30 min after injection): 2.82 (1.88) % injected dose per organ; Biodistribution of radioactivity, Stomach (60 min after injection): 2.26 (0.88) % injected dose per organ"
O=C1/C(=C/c2ccc(O)cc2)Oc2ccc([125I])cc21 [[^125I]20],3.14 (0.73) % injected dose per gram,2.77 (0.28) % injected dose per gram,1.75 (0.38) % injected dose per gram,0.87 (0.28) % injected dose per gram,3.07 (0.39) % injected dose per gram,1.48 (0.19) % injected dose per gram,0.37 (0.07) % injected dose per gram,0.14 (0.12) % injected dose per gram,6.23 (0.63) % injected dose per gram,2.57 (0.41) % injected dose per gram,0.98 (0.14) % injected dose per gram,0.42 (0.09) % injected dose per gram,2.11 (0.75) % injected dose per gram,6.12 (0.83) % injected dose per gram,12.67 (2.13) % injected dose per gram,14.87 (5.42) % injected dose per gram,11.08 (2.96) % injected dose per gram,11.22 (2.26) % injected dose per gram,5.82 (1.11) % injected dose per gram,2.43 (1.04) % injected dose per gram,"Biodistribution of radioactivity, Liver (2 min after injection): 6.05 (1.49) % injected dose per gram; Biodistribution of radioactivity, Liver (10 min after injection): 6.63 (1.08) % injected dose per gram; Biodistribution of radioactivity, Liver (30 min after injection): 4.23 (0.63) % injected dose per gram; Biodistribution of radioactivity, Liver (60 min after injection): 4.45 (3.14) % injected dose per gram; Biodistribution of radioactivity, Lung (2 min after injection): 6.69 (0.86) % injected dose per gram; Biodistribution of radioactivity, Lung (10 min after injection): 3.14 (0.23) % injected dose per gram; Biodistribution of radioactivity, Lung (30 min after injection): 1.62 (0.22) % injected dose per gram; Biodistribution of radioactivity, Lung (60 min after injection): 0.80 (0.19) % injected dose per gram; Biodistribution of radioactivity, Pancreas (2 min after injection): 5.28 (0.99) % injected dose per gram; Biodistribution of radioactivity, Pancreas (10 min after injection): 2.65 (0.64) % injected dose per gram; Biodistribution of radioactivity, Pancreas (30 min after injection): 0.92 (0.19) % injected dose per gram; Biodistribution of radioactivity, Pancreas (60 min after injection): 0.36 (0.09) % injected dose per gram; Biodistribution of radioactivity, Spleen (2 min after injection): 2.18 (0.48) % injected dose per gram; Biodistribution of radioactivity, Spleen (10 min after injection): 1.36 (0.15) % injected dose per gram; Biodistribution of radioactivity, Spleen (30 min after injection): 0.69 (0.14) % injected dose per gram; Biodistribution of radioactivity, Spleen (60 min after injection): 0.42 (0.02) % injected dose per gram; Biodistribution of radioactivity, Stomach (2 min after injection): 1.30 (0.43) % injected dose per organ; Biodistribution of radioactivity, Stomach (10 min after injection): 2.53 (0.97) % injected dose per organ; Biodistribution of radioactivity, Stomach (30 min after injection): 2.82 (1.88) % injected dose per organ; Biodistribution of radioactivity, Stomach (60 min after injection): 2.26 (0.88) % injected dose per organ"
Nc1ccc(/C=C2\Oc3ccc([125I])cc3C2=O)cc1 [[^125I]14],3.64 (0.78) % injected dose per gram,4.38 (0.52) % injected dose per gram,2.87 (0.82) % injected dose per gram,2.35 (1.38) % injected dose per gram,4.57 (0.27) % injected dose per gram,1.51 (0.17) % injected dose per gram,0.49 (0.06) % injected dose per gram,0.26 (0.03) % injected dose per gram,6.77 (0.74) % injected dose per gram,2.69 (0.45) % injected dose per gram,1.30 (0.41) % injected dose per gram,0.98 (0.25) % injected dose per gram,3.12 (0.85) % injected dose per gram,5.06 (1.51) % injected dose per gram,15.47 (5.48) % injected dose per gram,18.30 (7.21) % injected dose per gram,10.87 (2.95) % injected dose per gram,13.12 (4.30) % injected dose per gram,12.05 (5.44) % injected dose per gram,4.95 (1.82) % injected dose per gram,"Biodistribution of radioactivity, Liver (2 min after injection): 9.17 (3.45) % injected dose per gram; Biodistribution of radioactivity, Liver (10 min after injection): 8.48 (2.84) % injected dose per gram; Biodistribution of radioactivity, Liver (30 min after injection): 7.64 (2.19) % injected dose per gram; Biodistribution of radioactivity, Liver (60 min after injection): 5.85 (1.09) % injected dose per gram; Biodistribution of radioactivity, Lung (2 min after injection): 9.06 (0.47) % injected dose per gram; Biodistribution of radioactivity, Lung (10 min after injection): 7.01 (0.28) % injected dose per gram; Biodistribution of radioactivity, Lung (30 min after injection): 5.83 (0.55) % injected dose per gram; Biodistribution of radioactivity, Lung (60 min after injection): 5.23 (1.44) % injected dose per gram; Biodistribution of radioactivity, Pancreas (2 min after injection): 4.96 (0.44) % injected dose per gram; Biodistribution of radioactivity, Pancreas (10 min after injection): 2.01 (0.49) % injected dose per gram; Biodistribution of radioactivity, Pancreas (30 min after injection): 1.22 (0.21) % injected dose per gram; Biodistribution of radioactivity, Pancreas (60 min after injection): 0.87 (0.30) % injected dose per gram; Biodistribution of radioactivity, Spleen (2 min after injection): 2.29 (0.36) % injected dose per gram; Biodistribution of radioactivity, Spleen (10 min after injection): 1.64 (0.29) % injected dose per gram; Biodistribution of radioactivity, Spleen (30 min after injection): 0.84 (0.29) % injected dose per gram; Biodistribution of radioactivity, Spleen (60 min after injection): 0.92 (0.07) % injected dose per gram; Biodistribution of radioactivity, Stomach (2 min after injection): 1.59 (0.71) % injected dose per organ; Biodistribution of radioactivity, Stomach (10 min after injection): 2.94 (0.86) % injected dose per organ; Biodistribution of radioactivity, Stomach (30 min after injection): 4.01 (2.29) % injected dose per organ; Biodistribution of radioactivity, Stomach (60 min after injection): 3.49 (2.00) % injected dose per organ"

# — US20100003191A1, “AURONE DERIVATIVE-CONTAINING COMPOSITION FOR DIAGNOSIS” (NAGASAKI UNIVERSITY, priority 2006, published 2010)
